In US9446039B2, “Aminoheteroaryl compounds as MTH1 inhibitors” (CEMM—FORSCHUNGSZENTRUM FÜR MOLEKULARE MEDIZIN GMBH, priority 2012, dated 2016):

Columns and labels:
Assay type in all cases: binding
[1] = target: SW480 colon carcinoma cells lysate proteins (Homo sapiens, UniProt P62136); conditions: PreyGene PPP1CA
[2] = target: SW480 colon carcinoma cells lysate proteins (Homo sapiens, UniProt P12004); conditions: PreyGene PCNA
[3] = target: SW480 colon carcinoma cells lysate proteins (Homo sapiens, UniProt P68363); conditions: PreyGene TUBA1B; SW480 cells
Sequence of SW480 colon carcinoma cells lysate proteins (Homo sapiens, UniProt P68363) (P68363 whole entry): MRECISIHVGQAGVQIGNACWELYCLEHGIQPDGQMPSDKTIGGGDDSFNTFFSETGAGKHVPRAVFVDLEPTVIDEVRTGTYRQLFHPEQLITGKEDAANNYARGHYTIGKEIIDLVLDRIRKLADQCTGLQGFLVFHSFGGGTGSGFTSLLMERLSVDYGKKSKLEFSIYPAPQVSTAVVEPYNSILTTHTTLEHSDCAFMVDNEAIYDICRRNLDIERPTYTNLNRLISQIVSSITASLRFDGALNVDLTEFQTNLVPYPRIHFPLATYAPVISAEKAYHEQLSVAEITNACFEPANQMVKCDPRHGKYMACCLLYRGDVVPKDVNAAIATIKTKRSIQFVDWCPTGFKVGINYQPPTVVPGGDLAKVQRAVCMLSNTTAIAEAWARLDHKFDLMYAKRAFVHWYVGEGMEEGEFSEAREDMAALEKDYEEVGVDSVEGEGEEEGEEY

[4] = target: SW480 colon carcinoma cells lysate proteins (Homo sapiens, UniProt Q02878); conditions: PreyGene RPL6; SW480 cells
[5] = target: SW480 colon carcinoma cells lysate proteins (Homo sapiens, UniProt Q92688); conditions: PreyGene ANP32B
Sequence of SW480 colon carcinoma cells lysate proteins (Homo sapiens, UniProt Q92688) (Q92688 whole entry): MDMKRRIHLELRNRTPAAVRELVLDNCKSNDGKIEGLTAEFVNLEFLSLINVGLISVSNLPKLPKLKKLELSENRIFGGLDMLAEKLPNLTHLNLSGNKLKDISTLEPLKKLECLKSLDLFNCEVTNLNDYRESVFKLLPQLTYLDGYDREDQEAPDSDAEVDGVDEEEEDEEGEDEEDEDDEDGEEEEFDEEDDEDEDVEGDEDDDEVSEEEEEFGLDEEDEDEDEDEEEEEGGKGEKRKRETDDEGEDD

[6] = target: T1, SW480 colon carcinoma cells lysate proteins (Homo sapiens, UniProt Q7KZF4); conditions: PreyGene SND1
T1 sequence (Q7KZF4 1-910): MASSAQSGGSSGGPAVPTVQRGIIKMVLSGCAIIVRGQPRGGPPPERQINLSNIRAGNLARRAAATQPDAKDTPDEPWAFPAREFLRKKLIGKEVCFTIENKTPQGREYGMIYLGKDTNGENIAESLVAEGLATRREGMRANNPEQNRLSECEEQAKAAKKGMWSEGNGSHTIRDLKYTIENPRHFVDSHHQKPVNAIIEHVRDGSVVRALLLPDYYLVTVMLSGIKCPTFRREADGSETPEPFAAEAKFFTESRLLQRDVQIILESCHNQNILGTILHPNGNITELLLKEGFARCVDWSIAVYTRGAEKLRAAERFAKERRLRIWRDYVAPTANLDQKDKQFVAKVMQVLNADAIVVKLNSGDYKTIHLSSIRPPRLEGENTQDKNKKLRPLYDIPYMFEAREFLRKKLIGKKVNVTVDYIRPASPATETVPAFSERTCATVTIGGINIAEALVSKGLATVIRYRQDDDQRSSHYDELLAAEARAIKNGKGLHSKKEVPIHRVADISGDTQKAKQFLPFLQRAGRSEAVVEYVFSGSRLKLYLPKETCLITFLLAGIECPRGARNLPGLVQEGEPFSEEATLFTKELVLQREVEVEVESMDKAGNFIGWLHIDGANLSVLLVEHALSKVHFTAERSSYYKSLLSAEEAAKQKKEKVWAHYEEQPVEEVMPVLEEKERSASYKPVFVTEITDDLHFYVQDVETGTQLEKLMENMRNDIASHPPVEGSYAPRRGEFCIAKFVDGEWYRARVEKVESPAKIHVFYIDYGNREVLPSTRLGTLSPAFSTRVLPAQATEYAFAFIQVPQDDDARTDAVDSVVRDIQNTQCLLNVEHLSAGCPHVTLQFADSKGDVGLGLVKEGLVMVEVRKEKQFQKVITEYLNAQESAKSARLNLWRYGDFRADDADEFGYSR

[7] = target: SW480 colon carcinoma cells lysate proteins (Homo sapiens, UniProt P22626); conditions: PreyGene HNRNPA2B1
Sequence of SW480 colon carcinoma cells lysate proteins (Homo sapiens, UniProt P22626) (P22626 whole entry): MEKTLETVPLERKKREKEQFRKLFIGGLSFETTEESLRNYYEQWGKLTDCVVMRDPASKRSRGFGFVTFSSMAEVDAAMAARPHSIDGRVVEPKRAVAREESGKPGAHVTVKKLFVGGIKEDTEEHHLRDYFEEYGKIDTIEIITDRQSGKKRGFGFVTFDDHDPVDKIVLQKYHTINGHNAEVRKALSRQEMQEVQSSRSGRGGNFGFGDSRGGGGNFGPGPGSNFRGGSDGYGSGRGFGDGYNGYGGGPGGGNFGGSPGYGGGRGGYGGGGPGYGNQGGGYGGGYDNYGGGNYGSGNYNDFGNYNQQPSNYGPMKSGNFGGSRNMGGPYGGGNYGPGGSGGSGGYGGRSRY

[8] = target: T2, SW480 colon carcinoma cells lysate proteins (Homo sapiens, UniProt Q15102); conditions: PreyGene PAFAH1B3; SW480 cells
T2 sequence (Q15102 1-231): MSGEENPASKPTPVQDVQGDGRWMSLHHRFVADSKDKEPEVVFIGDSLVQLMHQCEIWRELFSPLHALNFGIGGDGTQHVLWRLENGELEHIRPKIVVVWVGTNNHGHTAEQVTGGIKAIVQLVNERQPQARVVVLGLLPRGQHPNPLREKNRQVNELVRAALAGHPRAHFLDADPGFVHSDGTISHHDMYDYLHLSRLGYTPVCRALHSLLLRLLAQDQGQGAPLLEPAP

[9] = target: SW480 colon carcinoma cells lysate proteins (Homo sapiens, UniProt P00441); conditions: PreyGene SOD1
Sequence of SW480 colon carcinoma cells lysate proteins (Homo sapiens, UniProt P00441) (P00441 whole entry): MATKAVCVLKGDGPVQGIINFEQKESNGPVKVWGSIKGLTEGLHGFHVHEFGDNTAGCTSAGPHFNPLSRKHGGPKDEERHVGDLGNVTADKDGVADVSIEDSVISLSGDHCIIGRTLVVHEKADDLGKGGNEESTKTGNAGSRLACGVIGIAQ

Sequence of SW480 colon carcinoma cells lysate proteins (Homo sapiens, UniProt P62136) (P62136 whole entry): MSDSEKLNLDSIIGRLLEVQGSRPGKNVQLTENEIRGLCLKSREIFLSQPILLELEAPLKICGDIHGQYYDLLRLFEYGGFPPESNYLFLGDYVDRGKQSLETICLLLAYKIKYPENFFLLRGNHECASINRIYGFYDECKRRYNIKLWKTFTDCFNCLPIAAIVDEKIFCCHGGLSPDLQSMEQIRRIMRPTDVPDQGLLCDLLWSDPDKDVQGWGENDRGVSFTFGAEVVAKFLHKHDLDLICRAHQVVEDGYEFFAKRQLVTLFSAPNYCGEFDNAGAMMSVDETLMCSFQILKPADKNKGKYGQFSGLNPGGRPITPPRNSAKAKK
Sequence of SW480 colon carcinoma cells lysate proteins (Homo sapiens, UniProt P12004) (P12004 whole entry): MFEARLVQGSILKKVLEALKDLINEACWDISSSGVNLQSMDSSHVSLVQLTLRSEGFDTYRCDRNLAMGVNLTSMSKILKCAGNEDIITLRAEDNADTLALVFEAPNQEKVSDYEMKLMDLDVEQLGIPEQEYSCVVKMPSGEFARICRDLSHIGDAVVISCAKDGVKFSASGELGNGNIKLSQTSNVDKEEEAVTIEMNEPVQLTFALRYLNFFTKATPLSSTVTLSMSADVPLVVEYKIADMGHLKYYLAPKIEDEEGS

C[C@H](Oc1cc(-c2cnn(C3CCNCC3)c2)cnc1N)c1c(Cl)ccc(F)c1Cl [(5)-crizotinib]
7: SC.Exp. 1-1 [4]
28: SC.Exp. Sum [4]
5: SC.Exp. 1-2 [6]
0.2944: AvgP [7]
0.3957: AvgP [6]
6: SC.Exp. 2-2 [4] | Sum (SC.Exp.) [7] | Sum (SC.Exp.) [9]
9: Sum (SC.Exp.) [5]
1: SC.Exp. 1-2 [2] | SC.Exp. 1-1 [3] | SC.Exp. 1-2 [3] | SC.Exp. 1-2 [5] | SC.Exp. 1-1 [8] | SC.Exp. 1-2 [8]
2: SC.Exp. 1-1 [1] | SC.Exp. 1-2 [1] | SC.Exp. 1-1 [2] | SC.Exp. Sum [3] | SC.Exp. 1-1 [7] | SC.Exp. 1-2 [7] | SC.Exp. 2-2 [7] | SC.Exp. Sum [8]
0.3721: AvgP [1]
4: Sum (SC.Exp.) [1] | SC.Exp. 2-1 [4] | SC.Exp. 2-1 [5] | SC.Exp. 2-2 [5]
0.5116: AvgP [5]
8: Sum (SC.Exp.) [6]
0.3137: AvgP [2]
3: Sum (SC.Exp.) [2] | SC.Exp. 1-1 [6] | SC.Exp. 1-1 [9] | SC.Exp. 1-2 [9]
11: SC.Exp. 1-2 [4]
0.3882: AvgP [9]
0: SC.Exp. 2-1 [1] | SC.Exp. 2-2 [1] | SC.Exp. 2-1 [2] | SC.Exp. 2-2 [2] | AvgP [3] | SC.Exp. 2-1 [3] | SC.Exp. 2-2 [3] | AvgP [4] | SC.Exp. 1-1 [5] | SC.Exp. 2-1 [6] | SC.Exp. 2-2 [6] | SC.Exp. 2-1 [7] | AvgP [8] | SC.Exp. 2-1 [8] | SC.Exp. 2-2 [8] | SC.Exp. 2-1 [9] | SC.Exp. 2-2 [9]
